Results as given in patent US20160060687A1, “METHODS AND COMPOSITIONS TO IDENTIFY, QUANTIFY, AND CHARACTERIZE TARGET ANALYTES AND BINDING MOIETIES” (CDI Laboratories, Inc., priority 2014, published 2016).
“Also recorded” adds a separate entry of the source.

System: MPG2
Experiment: Protein-DNA DAPPL binding assay on a protein microarray of two human TF proteins and BSA, ligation products detected by PCR
Details: array of two human TF proteins and BSA; Sanger sequencing, six of six clones as expected
From the text: A DAPPL approach was applied to establish a comprehensive screen for protein-DNA interactions. As illustrated in FIG. 19A and FIG. […] Meanwhile, a pool of DNA polynucleotides was synthesized that each contains eight random nucleotides with a CpG in the middle and two fixed sequences on both sides. After a double-stranded DNA pool was made with a Klenow reaction, bacterial enzyme SssI is used to methylate the CpG, followed by treatment with a T4 DNA polymerase to generate a 5′-overhang. This pool of 65,536 species was then incubated on the TF array, washed, and the captured DNA fragments were ligated to the address polynucleotides. In each ligated sequence, a mCpG containing 8-mer sequence is now connected to an address oligo representing the TF protein that has captured this 8-mer in the binding assay. Therefore, it is an “all-to-all” screening approach. […] The ligated products were then recovered from the slide and PCR-amplified. […] Bioinformatics analyses were performed to determine whether there was any enrichment of consensus motifs for each TF protein.
After cloning the PCR fragments, Sanger sequencing was performed to determine the PCR-amplified sequences. Six of six sequenced clones gave the expected sequences from the ligation on the array.

M62: methylated DNA motif M62 (SEQ ID NO: 10) used as probe on the TF protein microarray (DNA ATATGCATCG; methylated DNA motif, methylated positions not given here)
capture of the methylated DNA motif by the TF spot (recovery of ligation products by PCR): captures; also recorded: successfully recovered using a PCR reaction only from the expected TF spot
